From article PMC4342408 (Structure(London, England:1993), 2014)
Numbering of substitutions follows the chain as printed.

Key:
HYPE [1] = target: T1, HYPE (Homo sapiens, UniProt Q9BVA6, E234G); test: differential scanning fluorimetry (thermal shift), […] ligand; format: binding
T1 construct: gene FICD; 172–434
T1 sequence (Q9BVA6 172-434 E234G): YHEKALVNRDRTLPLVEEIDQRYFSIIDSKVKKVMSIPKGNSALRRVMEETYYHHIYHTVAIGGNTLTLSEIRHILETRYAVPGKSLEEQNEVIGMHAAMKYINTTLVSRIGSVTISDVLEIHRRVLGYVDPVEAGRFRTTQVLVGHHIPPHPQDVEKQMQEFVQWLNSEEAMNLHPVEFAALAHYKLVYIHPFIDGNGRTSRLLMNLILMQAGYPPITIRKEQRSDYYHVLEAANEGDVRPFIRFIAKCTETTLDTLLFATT

HYPE [2] = target: T2, HYPE (Homo sapiens, UniProt Q9BVA6, E234G); test: ITC; crystal structure; thermal shift; format: binding; design: gene FICD; residues 103-445
T2 sequence (Q9BVA6 103-445 E234G): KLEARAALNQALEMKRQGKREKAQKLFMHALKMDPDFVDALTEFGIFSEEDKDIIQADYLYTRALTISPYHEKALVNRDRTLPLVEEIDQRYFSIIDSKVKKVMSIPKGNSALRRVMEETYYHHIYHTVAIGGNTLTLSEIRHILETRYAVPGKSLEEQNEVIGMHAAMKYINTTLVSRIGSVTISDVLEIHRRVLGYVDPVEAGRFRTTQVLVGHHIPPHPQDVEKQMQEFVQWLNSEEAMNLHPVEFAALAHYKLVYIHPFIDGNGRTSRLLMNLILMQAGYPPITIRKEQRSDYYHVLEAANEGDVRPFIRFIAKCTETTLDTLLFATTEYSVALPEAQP

HYPE [3] = target: T3, HYPE (Homo sapiens, UniProt Q9BVA6); test: ITC; crystal structure; thermal shift; format: binding
T3 construct: gene FICD; residues 103-445
T3 sequence (Q9BVA6 103-445): T2 sequence (Q9BVA6 103-445 E234G) with G132E

HYPE [4] = target: T2, HYPE; test: crystal structure ([…] Å); thermal shift; format: binding; design: gene FICD; TPR-motifs, linker and FIC domain (lacking first 102 residues)
[5] = target: wild-type HYPE construct lacking the first 102 amino-acid residues (construct used for crystallization) (human) (UniProt Q9BVA6); test: SAXS; small angle X-ray scattering of soluble HYPE constructs in solution; methods in Supplemental Experimental Procedures
[6] = target: the molecule itself; test: SEC; analytical gel filtration of purified HYPE constructs

## O=c1ccn([C@@H]2O[C@H](CO[P@@](=O)(O)O[P@@](=O)(O)OP(=O)(O)O)[C@@H](O)[C@H]2O)c(=O)[nH]1 (stereo in doubt) [uridine triphosphate]
HYPE [1]
  differential scanning fluorimetry (thermal shift), 200 μM ligand: a less strong binding of cytidine triphosphate and uridine triphosphate (Figure 6A)

## Nc1ncnc2c1ncn2[C@@H]1O[C@H](COP(=O)(O)OP(=O)(O)O)[C@@H](O)[C@H]1O [ADP]
HYPE [2]
  Kd: 160 nM
HYPE [3]
  Kd: 1500 nM

## Nc1ncnc2c1ncn2C1OC(COP(=O)(O)OP(=O)(O)OP(=O)(O)O)C(O)C1O (centres unmarked) [ATP]
HYPE [4]
  crystal structure (2.7 Å); thermal shift: we have also obtained structures with the ATP cofactor bound to an E234G variant

## Nc1nc2c(ncn2[C@@H]2O[C@H](COP(=O)(O)OP(=O)(O)OP(=O)(O)O)[C@@H](O)[C@H]2O)c(=O)[nH]1 [guanosine-5'-triphosphate]
HYPE [1]
  differential scanning fluorimetry (thermal shift), 200 μM ligand: showed similar binding of ATP and guanosine-5'-triphosphate

## wild-type HYPE construct lacking the first 102 amino-acid residues (construct used for crystallization) (from UniProt Q9BVA6 103-458) (domain or fragment)
[5]
  stoichiometry N: 2

B1: HYPE variant (103–434), containing TPR-motifs, linker, and FIC domain (domain or fragment, human, UniProt Q9BVA6 103-434, looked up)
chain: KLEARAALNQALEMKRQGKREKAQKLFMHALKMDPDFVDALTEFGIFSEEDKDIIQADYLYTRALTISPYHEKALVNRDRTLPLVEEIDQRYFSIIDSKVKKVMSIPKGNSALRRVMEETYYHHIYHTVAIEGNTLTLSEIRHILETRYAVPGKSLEEQNEVIGMHAAMKYINTTLVSRIGSVTISDVLEIHRRVLGYVDPVEAGRFRTTQVLVGHHIPPHPQDVEKQMQEFVQWLNSEEAMNLHPVEFAALAHYKLVYIHPFIDGNGRTSRLLMNLILMQAGYPPITIRKEQRSDYYHVLEAANEGDVRPFIRFIAKCTETTLDTLLFATT
notes: human HYPE (FICD), residues 103-434: TPR-motifs (105-135, 140-170), linker (170-215), FIC domain (215-432); cloned into pOPINS; wild type; also called HYPE (103-434); source: E. coli C41(DE3), purified (Ni2+ chelating, Q-sepharose, gel filtration)
[6]
  stoichiometry N: 2

B2: HYPE (172–445), containing the linker helix and FIC domain (domain or fragment, human, UniProt Q9BVA6 172-445, looked up)
chain: YHEKALVNRDRTLPLVEEIDQRYFSIIDSKVKKVMSIPKGNSALRRVMEETYYHHIYHTVAIEGNTLTLSEIRHILETRYAVPGKSLEEQNEVIGMHAAMKYINTTLVSRIGSVTISDVLEIHRRVLGYVDPVEAGRFRTTQVLVGHHIPPHPQDVEKQMQEFVQWLNSEEAMNLHPVEFAALAHYKLVYIHPFIDGNGRTSRLLMNLILMQAGYPPITIRKEQRSDYYHVLEAANEGDVRPFIRFIAKCTETTLDTLLFATTEYSVALPEAQP
notes: human HYPE (FICD), residues 172-445: linker helix and FIC domain; cloned into pOPINS; also called ΔTPR; HYPE lacking TPR-motifs; source: E. coli C41(DE3), purified (Ni2+ chelating, Q-sepharose, gel filtration)
[6]
  binding result: binds
